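Dose response: 5 concentrations. Exposure: 48 h. Format: 96-well plates. Endpoint: linear interpolation; highest concentration if not reached. Abbreviation: GI50, concentration required for 50% inhibition of growth. Definition used: TGI = concentration required for complete inhibition of growth.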
Experiments:
Assay in all cases: NCI-60 cell line screen, 48 h
UACC-62 melanoma = system: UACC-62 melanoma
PC-3 prostate = system: PC-3 prostate
BT-549 breast = system: BT-549 breast
K-562 leukemia = system: K-562 leukemia
T-47D breast = system: T-47D breast
TK-10 renal = system: TK-10 renal
A549 NSCLC = system: A549 NSCLC
HOP-62 NSCLC = system: HOP-62 NSCLC
U251 CNS = system: U251 CNS
MALME-3M melanoma = system: MALME-3M melanoma
MOLT-4 leukemia = system: MOLT-4 leukemia
DU-145 prostate = system: DU-145 prostate
RPMI-8226 leukemia = system: RPMI-8226 leukemia
SK-MEL-28 melanoma = system: SK-MEL-28 melanoma
CAKI-1 renal = system: CAKI-1 renal
M14 melanoma = system: M14 melanoma
HT29 colon = system: HT29 colon
KM12 colon = system: KM12 colon
SNB-19 CNS = system: SNB-19 CNS
CCRF-CEM leukemia = system: CCRF-CEM leukemia
SNB-75 CNS = system: SNB-75 CNS
A498 renal = system: A498 renal
OVCAR-3 ovarian = system: OVCAR-3 ovarian
SK-OV-3 ovarian = system: SK-OV-3 ovarian
NCI-H226 lung = system: NCI-H226 lung
HCT-116 colon = system: HCT-116 colon
HCC-2998 colon = system: HCC-2998 colon
IGROV1 ovarian = system: IGROV1 ovarian
SK-MEL-5 melanoma = system: SK-MEL-5 melanoma
NCI-H522 lung = system: NCI-H522 lung
UACC-257 melanoma = system: UACC-257 melanoma
RXF 393 renal = system: RXF 393 renal
MDA-MB-435 = system: MDA-MB-435
EKVX NSCLC = system: EKVX NSCLC
UO-31 renal = system: UO-31 renal
SN12C renal = system: SN12C renal
NCI-H23 lung = system: NCI-H23 lung
OVCAR-5 ovarian = system: OVCAR-5 ovarian
SF-539 CNS = system: SF-539 CNS
SF-268 CNS = system: SF-268 CNS
MDA-MB-231 breast = system: MDA-MB-231 breast
OVCAR-8 ovarian = system: OVCAR-8 ovarian
SF-295 CNS = system: SF-295 CNS
NCI-H460 lung = system: NCI-H460 lung
786-0 renal = system: 786-0 renal
LOX IMVI melanoma = system: LOX IMVI melanoma
NCI/ADR-RES ovarian = system: NCI/ADR-RES ovarian
HCT-15 colon = system: HCT-15 colon
HS 578T breast = system: HS 578T breast
HL-60(TB) leukemia = system: HL-60(TB) leukemia
SW-620 colon = system: SW-620 colon
COLO 205 colon = system: COLO 205 colon
ACHN renal = system: ACHN renal
MCF7 breast = system: MCF7 breast
SR leukemia = system: SR leukemia

## N#Cc1c(Br)n(C2OC(CO)C(O)C2O)c2ncn3ccnc3c12 (stereo not given)
UACC-62 melanoma
  GI50: > 100 µM
  TGI: > 100 µM
PC-3 prostate
  GI50: 63.8 µM
  TGI: > 100 µM
BT-549 breast
  GI50: > 100 µM
  TGI: > 100 µM
K-562 leukemia
  GI50: 62.4 µM
  TGI: > 100 µM
T-47D breast
  GI50: > 100 µM
  TGI: > 100 µM
TK-10 renal
  GI50: > 100 µM
  TGI: > 100 µM
A549 NSCLC
  GI50: > 100 µM
  TGI: > 100 µM
HOP-62 NSCLC
  GI50: > 100 µM
  TGI: > 100 µM
U251 CNS
  GI50: > 100 µM
  TGI: > 100 µM
MALME-3M melanoma
  GI50: > 100 µM
  TGI: > 100 µM
MOLT-4 leukemia
  GI50: 41.9 µM
  TGI: > 100 µM
DU-145 prostate
  GI50: 69.5 µM
  TGI: > 100 µM
RPMI-8226 leukemia
  GI50: > 100 µM
  TGI: > 100 µM
SK-MEL-28 melanoma
  GI50: > 100 µM
  TGI: > 100 µM
CAKI-1 renal
  GI50: > 100 µM
  TGI: > 100 µM
M14 melanoma
  GI50: > 100 µM
  TGI: > 100 µM
HT29 colon
  GI50: 65.3 µM
  TGI: > 100 µM
KM12 colon
  GI50: > 100 µM
  TGI: > 100 µM
SNB-19 CNS
  GI50: > 100 µM
  TGI: > 100 µM
CCRF-CEM leukemia
  GI50: > 100 µM
  TGI: > 100 µM
SNB-75 CNS
  GI50: > 100 µM
  TGI: > 100 µM
A498 renal
  GI50: 19.9 µM
  TGI: > 100 µM
OVCAR-3 ovarian
  GI50: > 100 µM
  TGI: > 100 µM
SK-OV-3 ovarian
  GI50: > 100 µM
  TGI: > 100 µM
NCI-H226 lung
  GI50: 40.6 µM
  TGI: > 100 µM
HCT-116 colon
  GI50: 46.8 µM
  TGI: > 100 µM
HCC-2998 colon
  GI50: > 100 µM
  TGI: > 100 µM
IGROV1 ovarian
  GI50: 81.9 µM
  TGI: > 100 µM
SK-MEL-5 melanoma
  GI50: 64 µM
  TGI: > 100 µM
NCI-H522 lung
  GI50: > 100 µM
  TGI: > 100 µM
UACC-257 melanoma
  GI50: > 100 µM
  TGI: > 100 µM
RXF 393 renal
  GI50: 86.7 µM
  TGI: > 100 µM
MDA-MB-435
  GI50: > 100 µM
  TGI: > 100 µM
EKVX NSCLC
  GI50: > 100 µM
  TGI: > 100 µM
UO-31 renal
  GI50: 53.6 µM
  TGI: > 100 µM
SN12C renal
  GI50: > 100 µM
  TGI: > 100 µM
NCI-H23 lung
  GI50: > 100 µM
  TGI: > 100 µM
OVCAR-5 ovarian
  GI50: > 100 µM
  TGI: > 100 µM
SF-539 CNS
  GI50: > 100 µM
  TGI: > 100 µM
SF-268 CNS
  GI50: 58 µM
  TGI: > 100 µM
MDA-MB-231 breast
  GI50: > 100 µM
  TGI: > 100 µM
OVCAR-8 ovarian
  GI50: 52.3 µM
  TGI: > 100 µM
SF-295 CNS
  GI50: > 100 µM
  TGI: > 100 µM
NCI-H460 lung
  GI50: 40.7 µM
  TGI: > 100 µM
786-0 renal
  GI50: > 100 µM
  TGI: > 100 µM
LOX IMVI melanoma
  GI50: 60.1 µM
  TGI: > 100 µM
NCI/ADR-RES ovarian
  GI50: > 100 µM
  TGI: > 100 µM
HCT-15 colon
  GI50: > 100 µM
  TGI: > 100 µM
HS 578T breast
  GI50: > 100 µM
  TGI: > 100 µM
HL-60(TB) leukemia
  GI50: > 100 µM
  TGI: > 100 µM
SW-620 colon
  GI50: 44.1 µM
  TGI: > 100 µM
COLO 205 colon
  GI50: 55.1 µM
  TGI: > 100 µM
ACHN renal
  GI50: 57.6 µM
  TGI: > 100 µM
MCF7 breast
  GI50: > 100 µM
  TGI: > 100 µM
SR leukemia
  GI50: 50.7 µM
  TGI: > 100 µM

From PubChem BioAssay (NCI)
